Test results: patent US10189812B2, “Bi-benzyl isoquinoline derivative, preparation method and use thereof in hepatopathy treatment and prevention” (THE KEY LABORATORY OF CHEMISTRY FOR NATURAL PRODUCTS OF …, priority 2014, dated 2019)
Where two headings read alike, the source gives them in different places.

What was measured:
[1] = tested on: MHCC97L liver cancer cell strains; experiment: Tetrazolium salt reduction method (MTT) on human liver cancer cell strain MHCC97L; format: cell-based
Experimental: 3. human liver cancer cell strains MHCC97L model discrimination
(§1) Tested methods: Tetrazolium salt reduction method (MTT)
(1) Inoculating cells: Inoculating cells: A uniform cell suspension was prepared with culture solution containing fetal calf serum (10%). The suspension was implanted into a 96-well cell culture disc by 1000-10000 cells/200 μL per well.
(§2) (2) Culturing cells: The cells were cultured for 3-5 days according to known methods in the art (culturing time depending on experiment objective and requirement).
(§3) (3) Colour response: The cells were cultured for 3-5 days, 20 μl of MTT solution (5 mg/mL, PBS <pH=7.4>) was added in each well, incubated for 4 h. Culture was terminated and the culture suspension was carefully sucked out. As for suspension cells, they need be centrifuged before suspension solution in wells was sucked out. 150 μL of DMSO was added in each well, vibrated for 10 min. The crystal was fully dissolved.
(§4) (4) Colorimetry: Light absorbance values in each well were measured by ELISA at 490 nm and the results were recorded. The cell growth curve was drawn with time as the abscissa and absorbance values as vertical coordinates.
Model principle: Dehydrogenase related to NADP exists in mitochondria of living cell. Yellow MTT is reduced to insoluble blue-purple Formanzan. Dehydrogenase is disappeared in dead cell and MTT can not be reduced. According to reduction extent, action effect of sample on tumor cell is defected.

[2] = tested on: PLC/PRF/5 liver cancer cell strains; experiment: Tetrazolium salt reduction method (MTT) on human liver cancer cell strain PLC/PRF/5; format: cell-based
Experimental: 2. human liver cancer cell strains PLC/PRF/5 model discrimination
as §1
(1) Inoculating cells: A uniform cell suspension was prepared with culture solution containing fetal calf serum (10%). The suspension was implanted into a 96-well cell culture disc by 1000-10000 cells/200 μL per well.
as §2, §3, §4
Model principle: Dehydrogenase related to NADP exists in mitochondria of living cell. Yellow MIT is reduced to insoluble blue-purple Formanzan. Dehydrogenase is disappeared in dead cell and MIT can not be reduced. According to reduction extent, action effect of sample on tumor cell is defected.

[3] = MTT, cells cultured 3-5 days, read-out: MHCC97L IC50
[4] = MTT, cells cultured 3-5 days, read-out: PLC/PRF/5 IC50
[5] = Homo sapiens, MHCC97L, read-out: MHCC97L IC50 (μM)
[6] = Homo sapiens, PLC-PRF-5, read-out: PLC/PRF/5 IC50 (μM)
[7] = Homo sapiens, MHCC97L, MTT, cells cultured 3-5 days, read-out: MHCC97L IC50
[8] = Homo sapiens, PLC-PRF-5, MTT, cells cultured 3-5 days, read-out: PLC/PRF/5 IC50

| Structure (SMILES) | IC50 [1, 3] | IC50 [2, 4] | IC50 [1, 7] | IC50 [2, 8] | also measured |
| --- | --- | --- | --- | --- | --- |
| COc1cc(NS(=O)(=O)c2ccccc2[N+](=O)[O-])c2cc1Oc1ccc(cc1)C[C@H]1c3cc(c(OC)cc3CCN1C)Oc1c(OC)c(OC)cc3c1[C@H](C2)N(C)CC3 [Compound H-21] | 11.3 µM | 10.8 µM |  |  |  |
| COc1cc(NC(C)=O)c2cc1Oc1ccc(cc1)C[C@H]1c3cc(c(OC)cc3CCN1C)Oc1c(OC)c(OC)cc3c1[C@H](C2)N(C)CC3 [Compound H-01] |  |  |  |  | IC50 [1, 5]: 12.9 µM; IC50 [2, 6]: 12.3 µM |
| COc1cc(S(=O)(=O)Nc2ccccc2)c2cc1Oc1ccc(cc1)C[C@H]1c3cc(c(OC)cc3CCN1C)Oc1c(OC)c(OC)cc3c1[C@H](C2)N(C)CC3 [Compound H-38] |  |  | 10.7 µM | 10.2 µM |  |
| COc1cc(Br)c2cc1Oc1ccc(cc1)C[C@H]1c3cc(c(OC)cc3CCN1C)Oc1c(OC(C)=O)c(OC)c(Br)c3c1[C@H](C2)N(C)CC3 [Compound H-49] |  |  |  |  | IC50 [1, 5]: 8.7 µM; IC50 [2, 6]: 2.4 µM |
| COc1cc2c3cc1Oc1c(OC)c(OC)c(Br)c4c1[C@H](Cc1c([N+](=O)[O-])cc(OC)c(c1Br)Oc1ccc(cc1)C[C@@H]3N(C)CC2)N(C)CC4 [Compound H-36] |  |  | 12.1 µM | 11.9 µM |  |
| COc1cc(S(=O)(=O)O)c2cc1Oc1ccc(cc1)C[C@H]1c3cc(c(OC)cc3CCN1C)Oc1c(OC(=O)c3ccccc3)c(OC)cc3c1[C@H](C2)N(C)CC3 [Compound H-45] |  |  | 8.9 µM | 11.7 µM |  |
| COC(=O)C(=O)Nc1cc(OC)c2cc1C[C@H]1c3c(cc(OC)c(OC)c3Oc3cc4c(cc3OC)CCN(C)[C@H]4Cc3ccc(cc3)O2)CCN1C [Compound H-14] | 7.9 µM | 12.7 µM |  |  |  |
| COc1ccc2cc1Oc1ccc(cc1)C[C@H]1c3cc(c(OC)cc3CCN1C)Oc1c(ON=O)c(OC)cc3c1[C@H](C2)N(C)CC3 [Compound H-42] |  |  | 9.6 µM | 3.4 µM |  |
| C=C(OC)/C(OC)=C1/Oc2cc3c(cc2OC)CCN(C)[C@H]3Cc2ccc(cc2)Oc2cc(c(S(=O)(=O)O)cc2OC)C[C@H]2C1=CCCN2C [Compound H-37] |  |  | 7.3 µM | 7.6 µM |  |
| COc1cc(N=O)c2cc1Oc1ccc(cc1)C[C@H]1c3cc(c(OC)cc3CCN1C)Oc1c(OC)c(OC)cc3c1[C@H](C2)N(C)CC3 [Compound H-30] |  |  | 10.7 µM |  |  |
| COc1cc(S(=O)(=O)O)c2cc1Oc1ccc(cc1)C[C@H]1c3cc(c(OC)cc3CCN1C)Oc1c(O)c(OC)cc3c1[C@H](C2)N(C)CC3 [Compound H-53] |  |  | 1.1 µM | 3.2 µM |  |
| COc1cc(NC(=O)OCC(C)C)c2cc1Oc1ccc(cc1)C[C@H]1c3cc(c(OC)cc3CCN1C)Oc1c(OC)c(OC)cc3c1[C@H](C2)N(C)CC3 [Compound H-08] | 1.4 µM | 4.6 µM |  |  |  |
| COc1cc(NC(=O)COC(C)=O)c2cc1Oc1ccc(cc1)C[C@H]1c3cc(c(OC)cc3CCN1C)Oc1c(OC)c(OC)cc3c1[C@H](C2)N(C)CC3 [Compound H-13] | 8.4 µM | 10.1 µM |  |  |  |
| COc1ccc(C(=O)Nc2cc(OC)c3cc2C[C@H]2c4c(cc(OC)c(OC)c4Oc4cc5c(cc4OC)CCN(C)[C@H]5Cc4ccc(cc4)O3)CCN2C)cc1 [Compound H-04] | 12.2 µM | 5.4 µM |  |  |  |
| COc1cc(S(=O)(=O)OC)c2cc1Oc1ccc(cc1)C[C@H]1c3cc(c(OC)cc3CCN1C)Oc1c(OC)c(OC)cc3c1[C@H](C2)N(C)CC3 [Compound H-39] |  |  | 9.9 µM | 8.1 µM |  |
| COc1cc([N+](=O)[O-])c2cc1Oc1ccc(cc1)C[C@H]1c3cc(c(OC)cc3CCN1C)Oc1c(OC(=O)c3ccccc3)c(OC)cc3c1[C@H](C2)N(C)CC3 [Compound H-52] | 9.7 µM | 6.7 µM |  |  |  |
| COc1cc(NS(=O)(=O)c2ccc(Cl)cc2Cl)c2cc1Oc1ccc(cc1)C[C@H]1c3cc(c(OC)cc3CCN1C)Oc1c(OC)c(OC)cc3c1[C@H](C2)N(C)CC3 [Compound H-22] | 5.6 µM | 2.1 µM |  |  |  |
| COc1cc(S(=O)(=O)O)c2cc1Oc1ccc(cc1)C[C@H]1c3cc(c(OC)cc3CCN1C)Oc1c(OC)c(OC)c(Br)c3c1[C@H](C2)N(C)CC3 [Compound H-40] | 9.2 µM | 10.5 µM |  |  |  |

| Structure (SMILES) | IC50 [1, 3] | IC50 [2, 4] | IC50 [1, 7] | IC50 [2, 8] | also measured |
| --- | --- | --- | --- | --- | --- |
| COc1cc(NS(C)(=O)=O)c2cc1Oc1ccc(cc1)C[C@H]1c3cc(c(OC)cc3CCN1C)Oc1c(OC)c(OC)cc3c1[C@H](C2)N(C)CC3 [Compound H-17] |  |  | 9.8 µM | 4.6 µM |  |
| COc1cc([N+](=O)[O-])c2cc1Oc1ccc(cc1)C[C@H]1c3cc(c(OC)cc3CCN1C)Oc1c(OC)c(OC)cc3c1[C@H](C2)N(C)CC3 [Compound H-27] |  |  |  |  | IC50 [1, 5]: 1.9 µM; IC50 [2, 6]: 2.9 µM |
| COc1cc(N)c2cc1Oc1ccc(cc1)C[C@H]1c3cc(c(OC)cc3CCN1C)Oc1c(OC)c(OC)cc3c1[C@H](C2)N(C)CC3 [Compound H-29] |  |  | 10.1 µM | 14.8 µM |  |
| COc1cc([N+](=O)[O-])c2cc1Oc1ccc(cc1)C[C@H]1c3cc(c(OC)cc3CCN1C)Oc1c(OC)c(OC)c(Cl)c3c1[C@H](C2)N(C)CC3 [Compound H-43] |  |  | 8.8 µM | 8.1 µM |  |
| COc1cc2c3cc1Oc1c(OC)c(OC)c(Cl)c4c1[C@H](Cc1c([N+](=O)[O-])cc(OC)c(c1Cl)Oc1ccc(cc1)C[C@@H]3N(C)CC2)N(C)CC4 [Compound H-44] | 9.4 µM | 4.1 µM |  |  |  |
| COc1cc(Cl)c2cc1Oc1ccc(cc1)C[C@H]1c3cc(c(OC)cc3CCN1C)Oc1c(OC)c(OC)c(Br)c3c1[C@H](C2)N(C)CC3 [Compound H-54] |  |  | 0.4 µM | 3.2 µM |  |
| COc1cc([N+](=O)[O-])c2cc1Oc1ccc(cc1)C[C@H]1c3cc(c(OC)cc3CCN1C)Oc1c(OC(=O)c3ccccc3)c(OC)cc3c1[C@H](C2)N(C)CC3 [Compound H-33] |  |  |  | 9.3 µM |  |
| CNC(=O)c1cc(Oc2ccc(NC(=O)Nc3ccc(Cl)c(C(F)(F)F)c3)cc2)ccn1 [Sorafenib, reference compound] | 34.4 µM |  | 34.4 µM | 26.9 µM |  |
| COc1ccc2cc1Oc1ccc(cc1)C[C@H]1c3cc(c(OC)cc3CCN1C)Oc1c(OCc3ccccc3)c(OC)cc3c1[C@H](C2)[N+](C)(Cc1ccccc1)CC3 (stereo partly drawn) [Compound H-31] |  |  |  |  | IC50 [1, 5]: 12.7 µM; IC50 [2, 6]: 12.7 µM |
| COc1ccc2cc1Oc1ccc(cc1)C[C@H]1c3cc(c(OC)cc3CCN1C)Oc1c(OC(C)=O)c(OC)c(Br)c3c1[C@H](C2)N(C)CC3 [Compound H-48] |  |  |  |  | IC50 [1, 5]: 4.1 µM; IC50 [2, 6]: 0.5 µM |
| COc1cc2c3cc1Oc1c(OC)c(OC)c(Br)c4c1[C@H](Cc1c(S(=O)(=O)O)cc(OC)c(c1Br)Oc1ccc(cc1)C[C@@H]3N(C)CC2)N(C)CC4 [Compound H-41] |  |  | 8.6 µM | 9 µM |  |
| COc1cc(NC(=O)CO)c2cc1Oc1ccc(cc1)C[C@H]1c3cc(c(OC)cc3CCN1C)Oc1c(OC)c(OC)cc3c1[C@H](C2)N(C)CC3 [Compound H-12] |  |  | 9.1 µM | 10.1 µM |  |
| COc1cc(NS(=O)(=O)c2ccccc2)c2cc1Oc1ccc(cc1)C[C@H]1c3cc(c(OC)cc3CCN1C)Oc1c(OC)c(OC)cc3c1[C@H](C2)N(C)CC3 [Compound H-18] | 9.1 µM | 10.7 µM |  |  |  |
| COc1cc([N+](=O)[O-])c2cc1Oc1ccc(cc1)C[C@H]1c3cc(c(OC)cc3CCN1C)Oc1c(OC)c(OC)c([N+](=O)[O-])c3c1[C@H](C2)N(C)CC3 [Compound H-28] |  |  | 8.1 µM | 20.1 µM |  |
| COc1cc(Cl)c2cc1Oc1ccc(cc1)C[C@H]1c3cc(c(OC)cc3CCN1C)Oc1c(OC(C)=O)c(OC)c(Cl)c3c1[C@H](C2)N(C)CC3 [Compound H-50] | 3.3 µM | 9.8 µM |  |  |  |
| COc1cc2c3cc1Oc1c(OC(C)=O)c(OC)c(Cl)c4c1[C@H](Cc1c(Cl)cc(OC)c(c1Cl)Oc1ccc(cc1)C[C@@H]3N(C)CC2)N(C)CC4 [Compound H-51] |  |  |  |  | IC50 [1, 5]: 10.4 µM; IC50 [2, 6]: 1.4 µM |
| COc1cc([N+](=O)[O-])c2cc1Oc1ccc(cc1)C[C@H]1c3cc(c(OC)cc3CCN1C)Oc1c(OCc3ccccc3)c(OC)cc3c1[C@H](C2)N(C)CC3 [Compound H-32] |  |  | 1.26 µM | 8.9 µM |  |
